One block for each compound: values may come before it.
Assays:
femoral artery = assay: Effect on blood flow volume of femoral artery of dog; type: in vivo, dog of mixed breed; conditions: 1 mg/Kg intravenous, anesthetized dog; for change in vivo at 1 mg/kg: Canis lupus familiaris, iv, read-out: Increased Blood Flow Volume in Femoral Artery
Method: (§1) The effect of the isoquinolinesulfonyl derivatives and the pharmaceutically acceptable acid addition salts of this invention on the vasodilatation of the femoral and vertebral arteries can be measured by anesthetizing a dog of mixed breed weighting 8 to 15 Kg by an intravenous administration of 35 mg/Kg of pentbarbital, providing an acute type probe (a product of Nippon Koden K.K., Japan) with the femoral and vertebral arteries, administering the isoquinolinesulfonyl derivatives and the pharmaceutically acceptable acid addition salts to the femoral vein through a polyethylene tube inserted into the femoral vein side chain and measuring the blood flow volume with an electromagnetic flowmeter (a product of Nippon Koden K.K., Japan, "MF-27"). Among the isoquinolinesulfonyl compounds of Formula (I) of this invention, those with l=0 and the [drawing 37] group show a high action for increasing blood flow and simultaneously a selectivity to vertebral arteries. For example, when 1 mg/Kg of 1-(5-isoquinolinesulfonyl)piperazine, i.e., Compound (35) was intravenously administered, the increased blood flow volumes in the vertebral artery and in the femoral artery were 98% and 65%, respectively. Also the isoquinolinesulfonyl compounds of Formula (I) of this invention with l=1 and one of the R2 and R3 groups=a hydrogen atom show a continuing blood flow increase. With 1 mg/Kg of N-(2-aminoethyl)-5-isoquinolinesulfonamide, i.e., Compound (1), an increase in the blood flow volume in the vertebral artery was continued for at least 30 minutes.
(§2) The effect on the vasodilatation of the femoral and vertebral arteries was measured by anesthetizing a dog of mixed breed weighing 8 to 15 Kg by an intravenous administration of 35 mg/Kg of pentabarbital, providing an acute type probe (a product of Nippon Koden K.K., Japan) with the femoral and vertebral arteries, administering the 5-isoquinolinesulfonyl derivatives and their pharmaceutically acceptable acid addition salts to the femoral vein through a polyethylene tube inserted into the femoral vein side chain and measuring the blood flow volume with an electromagnetic blood flowmeter (a product of Nippon Koden K.K., Japan, "MF-27").

vertebral artery = assay: Effect on blood flow volume of vertebral artery of dog; type: in vivo, dog of mixed breed; conditions: 1 mg/Kg intravenous; for change in vivo at 1 mg/kg: Canis lupus familiaris, read-out: Increased Blood Flow Volume in Vertebral Artery
Method: as §1, §2

[1] = Acute toxicity, intravenous administration to male ddY-strain mice; conditions: mouse, in vivo
Method: The acute toxicity of the 5-isoquinolinesulfonyl derivatives and their pharmaceutically acceptable acid addition salts were measured by giving male ddY-strain mice an intravenous administration.

mesenteric artery = assay: Relaxation of mesenteric artery (helical strips contracted with KCl, organ bath); parameters: species or system rabbit (home bred, Japanese species); conditions: Oryctolagus cuniculus; concentration for 50% relaxation; KCl 15~20 mM contraction; read-out: Relaxation of Mesenteric Artery ED50
Method: After a home bred rabbit of a Japanese species weighing about 3 Kg was subjected to bloodletting, resulting in death and then to abdominal incision, the mesenteric artery was taken out, cut into helicoids of 2 mm×25 mm and suspended in a 20 ml organ bath filled with a Krebs-Henseleit solution into which a mixed gas of 95% by volume of O2 and 5% by volume of CO2 was introduced and one end of the artery was connected with an isometric transducer. When a load of 1.5 g was applied to the artery, the contraction and the relaxation of the artery were recorded as a weight on the transducer (a product of Nippon Koden K.K., Japan, "FD Pickup TB-912T"). The relaxation of the mesenteric artery was observed by adding the isoquinolinesulfonyl derivatives and their pharmaceutically acceptable acid addition salts of this invention to the mesenteric artery at the condition of about one half of the maximum contraction with KCl at a KCl concentration of 15~20 mM. When the complete relaxation of the mesenteric artery was designated 100%, the concentration of the isoquinolinesulfonyl derivatives and their pharmaceutically acceptable acid addition salts which brought about a relaxation of 50% is shown in Table 12.

SMILES: NCCNS(=O)(=O)c1cccc2cnccc12 [Compound 1]
change in vivo at 1 mg/kg (femoral artery): 30%
change in vivo at 1 mg/kg (vertebral artery; anesthetized dog): 45%
LD50 [1]: 108 mg/kg

SMILES: NCCCCNS(=O)(=O)c1cccc2cnccc12 [Compound 3]
change in vivo at 1 mg/kg (femoral artery): 33%
change in vivo at 1 mg/kg (vertebral artery; anesthetized dog): 36%
LD50 [1]: 87 mg/kg

SMILES: CCCCN(CCCC)CCCNS(=O)(=O)c1cccc2cnccc12 [Compound 19]
change in vivo at 1 mg/kg (femoral artery): 25%
change in vivo at 1 mg/kg (vertebral artery; anesthetized dog): 20%
LD50 [1]: 180 mg/kg

SMILES: CNS(=O)(=O)c1cccc2cnccc12 [Compound 25]
change in vivo at 1 mg/kg (femoral artery): 38%
change in vivo at 1 mg/kg (vertebral artery; anesthetized dog): 29%
LD50 [1]: 137 mg/kg

SMILES: O=S(=O)(c1cccc2cnccc12)N1CCCC1 [Compound 33]
change in vivo at 1 mg/kg (femoral artery): 35%
change in vivo at 1 mg/kg (vertebral artery; anesthetized dog): 37%
LD50 [1]: 150 mg/kg

SMILES: O=S(=O)(c1cccc2cnccc12)N1CCNCC1 [Compound 35]
change in vivo at 1 mg/kg (femoral artery): 69%
change in vivo at 1 mg/kg (vertebral artery; anesthetized dog): 98%
LD50 [1]: 29 mg/kg

SMILES: CN1CCN(S(=O)(=O)c2cccc3cnccc23)CC1 [Compound 36]
change in vivo at 1 mg/kg (femoral artery): 35%
change in vivo at 1 mg/kg (vertebral artery; anesthetized dog): 63%
LD50 [1]: 94 mg/kg

SMILES: CC1CN(S(=O)(=O)c2cccc3cnccc23)CCN1 (stereo not shown) [Compound 37]
change in vivo at 1 mg/kg (femoral artery): 65%
change in vivo at 1 mg/kg (vertebral artery; anesthetized dog): 90%
LD50 [1]: 89 mg/kg

SMILES: CC1CN(S(=O)(=O)c2cccc3cnccc23)C(C)CN1 (stereo not shown) [Compound 40]
change in vivo at 1 mg/kg (femoral artery): 50%
change in vivo at 1 mg/kg (vertebral artery; anesthetized dog): 110%
LD50 [1]: 42 mg/kg

SMILES: CC(C)CC1CN(S(=O)(=O)c2cccc3cnccc23)CCN1 (stereo not shown) [Compound 46]
change in vivo at 1 mg/kg (femoral artery): 32%
change in vivo at 1 mg/kg (vertebral artery; anesthetized dog): 55%
LD50 [1]: 130 mg/kg

SMILES: CCCCCCN1CCN(S(=O)(=O)c2cccc3cnccc23)CC1 [Compound 51]
change in vivo at 1 mg/kg (femoral artery): 39%
change in vivo at 1 mg/kg (vertebral artery; anesthetized dog): 68%
LD50 [1]: 108 mg/kg

SMILES: O=S(=O)(c1cccc2cnccc12)N1CCN(CC=Cc2ccccc2)CC1 [Compound 59]
change in vivo at 1 mg/kg (femoral artery): 25%
change in vivo at 1 mg/kg (vertebral artery; anesthetized dog): 49%
LD50 [1]: 145 mg/kg

SMILES: NCCNS(=O)(=O)c1cccc2cnccc12 [Compound (1), N-(2-aminoethyl)-5-isoquinolinesulfonamide]
EC50 (mesenteric artery): 5 µM
Duration of increase in the blood flow volume in the vertebral artery (vertebral artery; dog): at least 30 minutes

SMILES: O=S(=O)(c1cccc2cnccc12)N1CCNCC1 [Compound (35), 1-(5-isoquinolinesulfonyl)piperazine]
Increased Blood Flow Volume in Femoral Artery (femoral artery): 65%
EC50 (mesenteric artery): 0.6 µM
Increased Blood Flow Volume in Vertebral Artery (vertebral artery; anesthetized dog): 98%

EC50 (mesenteric artery): 27 µM
SMILES: O=C(C=Cc1ccccc1)N1CCN(S(=O)(=O)c2cccc3cnccc23)CC1 [Compound (60), 1-(5-isoquinolinesulfonyl)-4-cinnamoylpiperazine]

EC50 (mesenteric artery): 24 µM
SMILES: O=C(c1ccco1)N1CCN(S(=O)(=O)c2cccc3cnccc23)CC1 [Compound (61), 1-(5-isoquinolinesulfonyl)-4-furoylpiperazine]

EC50 (mesenteric artery): 13 µM
SMILES: CCOC(CN1CCN(S(=O)(=O)c2cccc3cnccc23)CC1)c1ccccc1 (stereo not shown) [Compound (63), 1-(5-isoquinolinesulfonyl)-4-(2-ethoxy-2-phenylethyl)piperazine]

EC50 (mesenteric artery): 13 µM
SMILES: CN(CCNS(=O)(=O)c1cccc2cnccc12)Cc1ccccc1 [Compound (65), N-[2-(N-methyl-N-benzylamino)ethyl]-5-isoquinolinesulfonamide]

EC50 (mesenteric artery): 18 µM
SMILES: CC(C)N(CCNS(=O)(=O)c1cccc2cnccc12)Cc1ccccc1 [Compound (67), N-[2-(N-isopropyl-N-benzylamino)ethyl]-5-isoquinolinesulfonamide]

From patent US4525589A, “Isoquinolinesulfonyl derivatives” (Asahi Kasei Kogyo Kabushiki Kaisha, priority 1981, dated 1985)
